In US9359367B2, “Tetrahydroquinazolinone derivatives as PARP inhibitors” (Lupin Limited, priority 2012, dated 2016) one finds IC50 data, which are given here for 20 molecules.

This assay addresses T1, PARP1 (Homo sapiens, UniProt P09874).
T1 construct: purchased BPS Bioscience
Kind of assay: PARP1 Biochemical Assay (BPS Bioscience kit, chemiluminescence). Conditions: histone-coated plate, biotinilated NAD+, 25° C. for 60 min, luminescence, read-out: PARP 1 inhibition IC50. Put shortly: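 Human PARP1 (25–75 ng/well) with activated DNA was incubated with compound on histone-coated wells. Biotinylated NAD+ was added and the reaction ran 60 min at 25 °C. Ribosylation was detected by streptavidin-HRP chemiluminescence, % inhibition was normalised to enzyme-free and uninhibited controls, and IC50 was fitted from % inhibition versus concentration.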

T1 sequence (P09874 whole entry): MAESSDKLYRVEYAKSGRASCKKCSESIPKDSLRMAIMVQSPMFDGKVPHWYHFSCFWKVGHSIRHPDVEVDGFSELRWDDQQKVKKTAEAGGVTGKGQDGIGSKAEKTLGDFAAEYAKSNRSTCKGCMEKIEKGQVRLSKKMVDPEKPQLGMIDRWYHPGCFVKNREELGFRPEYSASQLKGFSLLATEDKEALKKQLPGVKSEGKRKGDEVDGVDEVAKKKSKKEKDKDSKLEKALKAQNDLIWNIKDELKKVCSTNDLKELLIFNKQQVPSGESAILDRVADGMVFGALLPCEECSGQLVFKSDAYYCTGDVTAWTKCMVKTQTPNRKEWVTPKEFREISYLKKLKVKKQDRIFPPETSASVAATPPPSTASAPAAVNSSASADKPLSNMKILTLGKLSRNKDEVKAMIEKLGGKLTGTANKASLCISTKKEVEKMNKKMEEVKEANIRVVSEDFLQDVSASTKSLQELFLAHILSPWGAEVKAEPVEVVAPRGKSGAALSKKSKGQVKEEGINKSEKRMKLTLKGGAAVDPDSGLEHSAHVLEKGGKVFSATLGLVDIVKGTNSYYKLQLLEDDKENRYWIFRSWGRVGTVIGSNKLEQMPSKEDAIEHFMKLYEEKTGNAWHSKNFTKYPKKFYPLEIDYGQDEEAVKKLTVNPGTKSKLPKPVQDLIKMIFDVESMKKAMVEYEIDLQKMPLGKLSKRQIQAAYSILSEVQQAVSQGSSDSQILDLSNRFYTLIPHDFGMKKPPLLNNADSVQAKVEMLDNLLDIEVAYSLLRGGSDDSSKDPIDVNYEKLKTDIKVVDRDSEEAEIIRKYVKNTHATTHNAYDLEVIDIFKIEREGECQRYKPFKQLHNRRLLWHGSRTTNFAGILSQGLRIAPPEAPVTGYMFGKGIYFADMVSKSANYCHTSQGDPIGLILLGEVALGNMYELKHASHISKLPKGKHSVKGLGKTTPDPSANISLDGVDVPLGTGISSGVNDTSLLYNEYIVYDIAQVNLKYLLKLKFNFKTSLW

The term IC50 denotes the concentration that gives 50% inhibition. As to `Cc1ccc(N2CCN([C@H]3C=C(c4nc5c(c(=O)[nH]4)CC4(CC5)CC4)CC3)CC2)c(Cl)c1` [Compound 92, (R)-2′-(3-(4-(2-chloro-4-methylphenyl)piperazin-1-yl)cyclopent-1-en-1-yl)-7′,8′-dihydro-3′H-spiro[cyclopropane-1,6′-quinazolin]-4′(5′H)-one], the IC50 lay in the range of 1 to 500 nM.
Regarding `O=c1[nH]c(CCCN2CCN(c3ccccc3F)CC2)nc2c1CC1(CC2)CC1` [Compound 28, 2′-(3-(4-(2-fluorophenyl)piperazin-1-yl)propyl)-7′,8′-dihydro-3′H-spiro[cyclopropane-1,6′-quinazolin]-4′(5′H)-one], the IC50 lay in the range of 1 to 500 nM.
As for `CNC(=O)c1ccnc(N2CCN([C@H]3C=C(c4nc5c(c(=O)[nH]4)CC4(CC5)CC4)CC3)CC2)c1` [Compound 130, (R)—N-methyl-2-(4-(3-(4′-oxo-4′,5′,7′,8′-tetrahydro-3′H-spiro[cyclopropane-1,6′-quinazolin]-2′-yl)cyclopent-2-en-1-yl)piperazin-1-yl)isonicotinamide], the IC50 lay in the range of 501 to 5000 nM.
The result for `O=c1[nH]c(C2=C[C@H](N3CCN(c4ccc(Cl)c(Cl)c4)CC3)CC2)nc2c1CC1(CC2)CC1` [Compound 59, (R)-2′-(3-(4-(3,4-dichlorophenyl)piperazin-1-yl)cyclopent-1-en-1-yl)-7′,8′-dihydro-3′H-spiro[cyclopropane-1,6′-quinazolin]-4′(5′H)-one] reads 5000 to 500000 nM.
The result for `O=c1[nH]c([C@@H]2CC[C@H](N3CCN(c4ccc(Cl)cc4)CC3)C2)nc2c1CC1(CC2)CC1` [Compound 118, 2′-((1R,3S)-3-(4-(4-chlorophenyl)piperazin-1-yl)cyclopentyl)-7′,8′-dihydro-3′H-spiro[cyclopropane-1,6′-quinazolin]-4′(5′H)-one] reads 501 to 5000 nM; that for `O=c1[nH]c(C2=C[C@H](N3CCN(c4ccc(F)cc4F)CC3)CC2)nc2c1CC1(CC2)CC1` [Compound 61, (R)-2′-(3-(4-(2,4-difluorophenyl)piperazin-1-yl)cyclopent-1-en-1-yl)-7′,8′-dihydro-3′H-spiro[cyclopropane-1,6′-quinazolin]-4′(5′H)-one], 1 to 500 nM; that for `O=c1[nH]c([C@H]2CC[C@H](N3CCN(c4ccc(Cl)cc4)CC3)C2)nc2c1CC1(CC2)CC1` [Compound 119, 2′-((1S,3S)-3-(4-(4-chlorophenyl)piperazin-1-yl)cyclopentyl)-7′,8′-dihydro-3′H-spiro[cyclopropane-1,6′-quinazolin]-4′(5′H)-one], 1 to 500 nM.
For `O=c1[nH]c(CCCN2CCN(c3ccccc3)CC2)nc2c1CC1CC1C2` (centres unmarked) [Compound 25, 2-(3-(4-phenylpiperazin-1-yl)propyl)-5a,6,6a,7-tetrahydro-3H-cyclopropa[g]quinazolin-4(5H)-one] the value was 501 to 5000 nM; for `Cc1cccc(N2CCN([C@H]3C=C(c4nc5c(c(=O)[nH]4)CC4(CC5)CC4)CC3)CC2)c1C` [Compound 140, (R)-2′-(3-(4-(2,3-dimethylphenyl)piperazin-1-yl)cyclopent-1-en-1-yl)-7′,8′-dihydro-3′H-spiro[cyclopropane-1,6′-quinazolin]-4′(5′H)-one], 501 to 5000 nM.
As to `O=c1[nH]c(C2=C[C@H](N3CCN(c4cccc(Cl)c4)CC3)CC2)nc2c1CC1(CC2)CC1` [Compound 60, (R)-2′-(3-(4-(3-chlorophenyl)piperazin-1-yl)cyclopent-1-en-1-yl)-7′,8′-dihydro-3′H-spiro[cyclopropane-1,6′-quinazolin]-4′(5′H)-one], the IC50 lay in the range of 501 to 5000 nM.
For the molecule `O=c1[nH]c([C@H]2CC[C@@H](N3CCN(c4ccc(F)cc4)CC3)C2)nc2c1CC1(CC2)CC1` [Compound 151, 2′-((1S,3R)-3-(4-(4-fluorophenyl)piperazin-1-yl)cyclopentyl)-7′,8′-dihydro-3′H-spiro[cyclopropane-1,6′-quinazolin]-4′(5′H)-one], the 50% inhibitory concentration (IC50) is 1 to 500 nM.
For `O=c1[nH]c(C2=C[C@H](N3CCN(c4cccc(F)c4Cl)CC3)CC2)nc2c1CC1(CC2)CC1` [Compound 93, (R)-2′-(3-(4-(2-chloro-3-fluorophenyl)piperazin-1-yl)cyclopent-1-en-1-yl)-7′,8′-dihydro-3′H-spiro[cyclopropane-1,6′-quinazolin]-4′(5′H)-one] the value was 1 to 500 nM; for `CNC(=O)c1csc(N2CCN([C@H]3C=C(c4nc5c(c(=O)[nH]4)CC4(CC5)CC4)CC3)CC2)n1` [Compound 105, (R)—N-methyl-2-(4-(3-(4′-oxo-4′,5′,7′,8′-tetrahydro-3′H-spiro[cyclopropane-1,6′-quinazolin]-2′-yl)cyclopent-2-en-1-yl)piperazin-1-yl)thiazole-4-carboxamide], 501 to 5000 nM; for `CC(CCc1nc2c(c(=O)[nH]1)CC1(CC2)CC1)N1CCN(c2ccc(F)cc2)CC1` (centres unmarked) [Compound 21, 2′-(3-(4-(4-fluorophenyl)piperazin-1-yl)butyl)-7′,8′-dihydro-3′H-spiro[cyclopropane-1,6′-quinazolin]-4′(5′H)-one], 1 to 500 nM.
Regarding `CNC(=O)c1ccc(N2CCN([C@H]3C=C(c4nc5c(c(=O)[nH]4)CC4(CC5)CC4)CC3)CC2)cc1` [Compound 54, (R)—N-methyl-4-(4-(3-(4′-oxo-4′,5′,7′,8′-tetrahydro-3′H-spiro[cyclopropane-1,6′-quinazolin]-2′-yl)cyclopent-2-en-1-yl)piperazin-1-yl)benzamide], the IC50 is 1 to 500 nM.
For `Cc1cccc(N2CCN([C@H]3C=C(c4nc5c(c(=O)[nH]4)CC4(CC5)CC4)CC3)CC2)n1` [Compound 145, (R)-2′-(3-(4-(6-methylpyridin-2-yl)piperazin-1-yl)cyclopent-1-en-1-yl)-7′,8′-dihydro-3′H-spiro[cyclopropane-1,6′-quinazolin]-4′(5′H)-one] the value was 1 to 500 nM.
For `O=C1CN([C@H]2C=C(c3nc4c(c(=O)[nH]3)CC3(CC4)CC3)CC2)CCN1c1ccc(F)cc1` [Compound 45, (R)2′-(3-(4-(4-fluorophenyl)-3-oxopiperazin-1-yl)cyclopent-1-en-1-yl)-7′,8′-dihydro-3′H-spiro[cyclopropane-1,6′-quinazolin]-4′(5′H)-one] the value was 5000 to 500000 nM; for `N#Cc1ccc(N2CCN([C@H]3C=C(c4nc5c(c(=O)[nH]4)CC4(CC5)CC4)CC3)CC2)cc1F` [Compound 127, (R)-2-fluoro-4-(4-(3-(4′-oxo-4′,5′,7′,8′-tetrahydro-3′H-spiro[cyclopropane-1,6′-quinazolin]-2′-yl)cyclopent-2-en-1-yl)piperazin-1-yl)benzonitrile], 1 to 500 nM; for `Cc1cc(N2CCN([C@H]3C=C(c4nc5c(c(=O)[nH]4)CC4(CC5)CC4)CC3)CC2)ccn1` [Compound 147, (R)-2′-(3-(4-(2-methylpyridin-4-yl)piperazin-1-yl)cyclopent-1-en-1-yl)-7′,8′-dihydro-3′H-spiro[cyclopropane-1,6′-quinazolin]-4′(5′H)-one], 1 to 500 nM.
`O=c1[nH]c(CCCN2CCN(c3cccc(C(F)(F)F)c3)CC2)nc2c1CC1(CC2)CC1` [Compound 22, 2′-(3-(4-(3-(trifluoromethyl)phenyl)piperazin-1-yl)propyl)-7′,8′-dihydro-3′H-spiro[cyclopropane-1,6′-quinazolin]-4′(5′H)-one]: the IC50 fell in the range of 5000 to 500000 nM.
